# Assays:
# PGE2 receptor 1 (EP1) = target: T1, PGE2 receptor 1 (EP1) (Homo sapiens, UniProt P34995); assay: EP1 receptor calcium agonist assay (HEK293T cells); assay type: cell-based; set-up: key to EC50 Fold Different from Treprostinil, EP1 Receptor: NC = too inactive to realistically calculate; settings: for EP1 Relative to Tre: Table 22, relative to treprostinil EC50 values, * partial agonists or ambiguous dose-response curves
# T1 sequence (P34995 1-402): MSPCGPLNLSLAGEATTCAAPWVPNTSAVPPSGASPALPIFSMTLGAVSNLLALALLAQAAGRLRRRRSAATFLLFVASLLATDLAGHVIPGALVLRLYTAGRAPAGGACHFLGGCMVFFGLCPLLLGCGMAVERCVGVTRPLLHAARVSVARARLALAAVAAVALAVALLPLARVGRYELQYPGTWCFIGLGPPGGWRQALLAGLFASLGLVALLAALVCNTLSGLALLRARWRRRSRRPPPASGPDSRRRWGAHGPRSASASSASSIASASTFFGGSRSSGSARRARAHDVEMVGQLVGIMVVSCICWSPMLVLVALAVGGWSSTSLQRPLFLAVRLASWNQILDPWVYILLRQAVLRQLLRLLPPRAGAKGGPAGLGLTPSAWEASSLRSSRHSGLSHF
# Experimental: Calcium assay kit: Multiscreen™ Calcium 1.0 No Wash Kit (Multispan, Inc., Cat #MSCA01-1)
# • EP1 Calcium and DP1 cAMP Assays: HBSS plus 20 mM HEPES • EP2 and IP1 cAMP Assays: 1 mM IBMX in HBSS plus 20 mM HEPES Instruments: FlexStation III (Molecular Devices) and FLIPR 384 (Molecular Devices)
# Cells were thawed from frozen cells and resuspended in assay buffer at desired concentrations. cAMP or Calcium assays were performed according to the manufacturer's protocol using Multiscreen™ TR-FRET cAMP 1.0 No Wash Assay Kit or Multiscreen™ Calcium 1.0 No Wash Kit.
# Calcium Assay: Cells were seeded in a 384-well plate at an appropriate density. The calcium assay was conducted according to the manufacturer's protocols (Multiscreen Calcium 1.0 No Wash Assay Kit). The calcium dye loading buffer was added to the cells and incubated for 1 hour at 37° C. For agonist mode, cells were injected with Iloprost control agonist or test compound by FLIPR and calcium mobilization was monitored for 180 seconds with compound injected into the wells at the 19th second. Fluorescent emissions were read at 525 nm with excitation at 490 nm in a FLIPR 384 instrument (Molecular Devices).
# Calcium Assay: Calcium assay results are expressed as “RFU” as defined in figure below. Data are represented in Mean±SEM. Dose-response curves were fitted using “Sigmoidal dose-response (variable slope)” function in GraphPad Prism 6. EC50 values were calculated based on the fitted curves.
# Prostaglandin receptor activity assessments with treprostinil and treprostinil analogues have been conducted, and a historical, positive control agonist for these receptors, iloprost (for IP, EP2 and EP1) or PGD2 (for DP1), was also included. These studies used cell lines overexpressing either human IP, EP2 or DP1, or EP1 receptors, and following incubation with varying concentrations of compounds, cAMP levels were measured using Fluorescence Resonance Energy Transfer (FRET). The 665/620 (acceptor/donor emission signals) ratio is inversely proportional to the concentration of cAMP.
# [1] = Plasma stability, human plasma; assay type: in vitro ADME; settings: for Formation of Treprostinil, Concentration 0 min / Formation of Treprostinil, Concentration 15 min / Formation of Treprostinil, Concentration 30 min / Formation of Treprostinil, Concentration 60 min / Formation of Treprostinil, Concentration 120 min: prodrug dosed 1 μM
# Experimental: (§1) Studies were carried out in mixed-gender human plasma male Sprague-Dawley rat plasma, and male Beagle dog plasma. All plasma was obtained from Bioreclamation and collected on K2EDTA. Plasma was adjusted to pH 7.4 prior to initiating the experiments. DMSO stocks were first prepared for the test articles. […] The vials were kept in a benchtop Thermomixer® for the duration of the experiment. […] Samples were stored at 4° C. until the end of the experiment. After the final time point was sampled, the plate was mixed and then centrifuged at 3000 rpm for 10 minutes.
# [2] = Plasma stability, rat plasma; assay type: in vitro ADME, Sprague-Dawley rat; settings: for Formation of Treprostinil, Concentration 0 min / Formation of Treprostinil, Concentration 15 min / Formation of Treprostinil, Concentration 30 min / Formation of Treprostinil, Concentration 60 min / Formation of Treprostinil, Concentration 120 min: prodrug dosed 1 μM
# Experimental: as §1
# [3] = Plasma stability, dog plasma; assay type: in vitro ADME, Beagle dog; settings: for Formation of Treprostinil, Concentration 0 min / Formation of Treprostinil, Concentration 15 min / Formation of Treprostinil, Concentration 30 min / Formation of Treprostinil, Concentration 60 min / Formation of Treprostinil, Concentration 120 min: prodrug dosed 1 μM
# Experimental: as §1
# [4] = Stability in simulated intestinal fluid; assay type: in vitro ADME; settings: for Half-life / Percent Remaining 0 min / Percent Remaining 15 min / Percent Remaining 30 min / Percent Remaining 60 min / Percent Remaining 120 min: SIF pH 6.8 with pancreatin, 1 μM, 37° C.; for Formation of Treprostinil, Concentration 0 min / Formation of Treprostinil, Concentration 15 min / Formation of Treprostinil, Concentration 30 min / Formation of Treprostinil, Concentration 60 min / Formation of Treprostinil, Concentration 120 min: SIF, prodrug dosed 1 μM
# Experimental: Studies were carried out in simulated intestinal fluid (SIF). SIF was prepared by dissolving 6.8 g of KH2PO4 in 250 mL of water, mixing, and then adding 77 mL of 0.2 N NaOH and […] of water. […] DMSO stocks were first prepared for the test articles. […] The vials were kept in a benchtop Thermomixer® for the duration of the experiment. A separate tube was dosed for each time point in each matrix. […] Samples were mixed and then immediately stored at 4° C. until the end of the experiment. After the final time point was sampled, the plate was mixed and then centrifuged at 3000 rpm for 10 minutes.
# [5] = dog
compound,measurement,setting,value
CCCCCC(CCC1C(O)CC2Cc3c(cccc3OCC(=O)O)CC21)OC(=O)CC (centres unmarked) [Prodrug LV],EP1 Relative to Tre,PGE2 receptor 1 (EP1),122x*
"CCCCCC(CCC1C(OC(=O)CC)CC2Cc3c(cccc3OCC(=O)O)CC21)OC(=O)CC (centres unmarked) [Prodrug LXX, treprostinil dipropionate]",Half-life,"[1]; 1 μM, 37° C.",>120 min
same,Percent Remaining 0 min,"[1]; 1 μM, 37° C.",100%
same,Percent Remaining 15 min,"[1]; 1 μM, 37° C.",92.4%
same,Percent Remaining 30 min,"[1]; 1 μM, 37° C., 30 min",102%
same,Percent Remaining 60 min,"[1]; 1 μM, 37° C.",93.3%
same,Percent Remaining 120 min,"[1]; 1 μM, 37° C.",103%
same,"Formation of Treprostinil, Concentration 0 min",[1],0 µM
same,"Formation of Treprostinil, Concentration 15 min",[1],0 µM
same,"Formation of Treprostinil, Concentration 30 min",[1]; 30 min,0 µM
same,"Formation of Treprostinil, Concentration 60 min",[1],0 µM
same,"Formation of Treprostinil, Concentration 120 min",[1],0 µM
same,Half-life,"[2]; 1 μM, 37° C.",102 min
same,Percent Remaining 0 min,"[2]; 1 μM, 37° C.",100%
same,Percent Remaining 15 min,"[2]; 1 μM, 37° C.",98.3%
same,Percent Remaining 30 min,"[2]; 1 μM, 37° C., 30 min",80.3%
same,Percent Remaining 60 min,"[2]; 1 μM, 37° C.",69.3%
same,Percent Remaining 120 min,"[2]; 1 μM, 37° C.",45.0%
same,"Formation of Treprostinil, Concentration 0 min",[2],0 µM
same,"Formation of Treprostinil, Concentration 15 min",[2],0.00392 µM
same,"Formation of Treprostinil, Concentration 30 min",[2]; 30 min,0.0101 µM
same,"Formation of Treprostinil, Concentration 60 min",[2],0.0331 µM
same,"Formation of Treprostinil, Concentration 120 min",[2],0.0768 µM
same,Half-life,"[3]; 1 μM, 37° C.",>120 min
same,Percent Remaining 0 min,"[3]; 1 μM, 37° C.",100%
same,Percent Remaining 15 min,"[3]; 1 μM, 37° C.",103%
same,Percent Remaining 30 min,"[3]; 1 μM, 37° C., 30 min",116%
same,Percent Remaining 60 min,"[3]; 1 μM, 37° C.",97.4%
same,Percent Remaining 120 min,"[3]; 1 μM, 37° C.",91.4%
same,"Formation of Treprostinil, Concentration 0 min",[3],0 µM
same,"Formation of Treprostinil, Concentration 15 min",[3],0 µM
same,"Formation of Treprostinil, Concentration 30 min",[3]; 30 min,0 µM
same,"Formation of Treprostinil, Concentration 60 min",[3],0 µM
same,"Formation of Treprostinil, Concentration 120 min",[3],0 µM
same,Half-life,[4],>120 min
same,Percent Remaining 0 min,[4],100%
same,Percent Remaining 15 min,[4],97.2%
same,Percent Remaining 30 min,[4],104%
same,Percent Remaining 60 min,[4],93.6%
same,Percent Remaining 120 min,[4],86.2%
same,"Formation of Treprostinil, Concentration 0 min",[4],0 µM
same,"Formation of Treprostinil, Concentration 15 min",[4],0 µM
same,"Formation of Treprostinil, Concentration 30 min",[4],0 µM
same,"Formation of Treprostinil, Concentration 60 min",[4],0.00415 µM
same,"Formation of Treprostinil, Concentration 120 min",[4],0.0720 µM
same,"EC50 Fold Different from Treprostinil, EP1 Receptor","PGE2 receptor 1 (EP1); Table 18, * partial agonists or odd dose-response curves",NC
same,AUC,[5],71.85 µmol·min/L
"CCCCCC(CCC1C(OC(=O)OC)CC2Cc3c(cccc3OCC(=O)O)CC21)OC(=O)OC (centres unmarked) [Prodrug LXXI, treprostinil dicarbonate]",Half-life,[4],>120 min
same,Percent Remaining 0 min,[4],100%
same,Percent Remaining 15 min,[4],96.2%
same,Percent Remaining 30 min,[4],100%
same,Percent Remaining 60 min,[4],91.9%
same,Percent Remaining 120 min,[4],83.5%
same,AUC,[5],56.21 µmol·min/L
CCCCCC(CCC1C(O)CC2Cc3c(cccc3OCC(=O)O)CC21)OP(=O)(O)O (centres unmarked) [Prodrug VI],EP1 Relative to Tre,PGE2 receptor 1 (EP1),5x
same,EP1 Relative to Tre,PGE2 receptor 1 (EP1); listed as Prodrug VI repeat,42x
CCCCCC(CCC1C(O)CC2Cc3c(cccc3OCC(=O)O)CC21)OC(C)=O (centres unmarked) [Prodrug XLIII],EP1 Relative to Tre,PGE2 receptor 1 (EP1),20x*
treprostinil diacetate [Prodrug LXXII],Half-life,"[1]; 1 μM, 37° C.",>120 min
same,Percent Remaining 0 min,"[1]; 1 μM, 37° C.",100%
same,Percent Remaining 15 min,"[1]; 1 μM, 37° C.",106%
same,Percent Remaining 60 min,"[1]; 1 μM, 37° C.",102%
same,Percent Remaining 120 min,"[1]; 1 μM, 37° C.",86.5%
same,"Formation of Treprostinil, Concentration 0 min",[1],0 µM
same,"Formation of Treprostinil, Concentration 15 min",[1],0 µM
same,"Formation of Treprostinil, Concentration 30 min",[1]; 30 min,0 µM
same,"Formation of Treprostinil, Concentration 60 min",[1],0 µM
same,"Formation of Treprostinil, Concentration 120 min",[1],0 µM
same,Half-life,"[2]; 1 μM, 37° C.",>120 min
same,Percent Remaining 0 min,"[2]; 1 μM, 37° C.",100%
same,Percent Remaining 15 min,"[2]; 1 μM, 37° C.",107%
same,Percent Remaining 60 min,"[2]; 1 μM, 37° C.",83.6%
same,Percent Remaining 120 min,"[2]; 1 μM, 37° C.",79.7%
same,"Formation of Treprostinil, Concentration 0 min",[2],0 µM
same,"Formation of Treprostinil, Concentration 15 min",[2],0 µM
same,"Formation of Treprostinil, Concentration 30 min",[2]; 30 min,0 µM
same,"Formation of Treprostinil, Concentration 60 min",[2],0.00595 µM
same,"Formation of Treprostinil, Concentration 120 min",[2],0.0151 µM
same,Half-life,"[3]; 1 μM, 37° C.",>120 min
same,Percent Remaining 0 min,"[3]; 1 μM, 37° C.",100%
same,Percent Remaining 15 min,"[3]; 1 μM, 37° C.",96.7%
same,Percent Remaining 60 min,"[3]; 1 μM, 37° C.",107%
same,Percent Remaining 120 min,"[3]; 1 μM, 37° C.",82.9%
same,"Formation of Treprostinil, Concentration 0 min",[3],0 µM
same,"Formation of Treprostinil, Concentration 15 min",[3],0 µM
same,"Formation of Treprostinil, Concentration 30 min",[3]; 30 min,0 µM
same,"Formation of Treprostinil, Concentration 60 min",[3],0 µM
same,"Formation of Treprostinil, Concentration 120 min",[3],0 µM
same,Half-life,[4],>120 min
same,Percent Remaining 0 min,[4],100%
same,Percent Remaining 15 min,[4],111%
same,Percent Remaining 60 min,[4],108%
same,Percent Remaining 120 min,[4],109%
same,"Formation of Treprostinil, Concentration 0 min",[4],0 µM
same,"Formation of Treprostinil, Concentration 15 min",[4],0 µM
same,"Formation of Treprostinil, Concentration 30 min",[4],0 µM
same,"Formation of Treprostinil, Concentration 60 min",[4],0 µM
same,"Formation of Treprostinil, Concentration 120 min",[4],0.0126 µM
same,AUC,[5],60.91 µmol·min/L

# — patent US12491170B2, “Stable treprostinil prodrugs” (United Therapeutics Corporation, priority 2020, dated 2025)
